Measurements taken from ChEMBL document CHEMBL1158982, “Chemical studies on Mexican plants used in traditional medicine, XXI. Ratibinolide II, a new sesquiterpene lactone from Ratibida latipalearis” (J Nat Prod, 1991).
In brackets after ≈: the same amount, converted by molar mass.

Test: Toxicity against brine shrimp
Type: organism-based
Conditions: artemia, in vivo

## C=C1C(=O)O[C@H]2[C@H]1CC[C@@]1(C)[C@@H](O)C=C[C@@]3(C)O[C@]231 [RATIBINOLIDE II]
  LC50: 69.5 µg/mL (≈ 265 µM)
